Source: the supplement of paper PMC10307832

Legend:
Experiment in all cases: relative viability (nuclei count vs DMSO), 5 days (fraction); higher = more cells survive
Midostaurin = compound: CO[C@@H]1[C@H](N(C)C(=O)c2ccccc2)C[C@H]2O[C@]1(C)n1c3ccccc3c3c4c(c5c6ccccc6n2c5c31)C(=O)NC4 [Midostaurin]
How it was run: (§1)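 Viability is treated-well nuclei as a fraction of vehicle-well nuclei, reported as the median across plates. Before counting, lung cancer cell lines were kept overnight at 37 °C in 1536-well plates, pinned with five √10-spaced library-drug doses on vehicle-anchored plates, and left 5 days without medium change, then fixed, permeabilised and Hoechst-stained in one step, imaged at 4× and counted by MetaXpress. A plate passed only if control CV was below 25% and at least one doubling occurred.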

[1] = compound: COc1cc(-c2nn([C@H]3CC[C@H](N4CCN(C(C)=O)CC4)CC3)c3ncnc(N)c23)ccc1NC(=O)c1cc2ccccc2n1C
How it was run: as §1

Midostaurin + Pictilisib = compound: CO[C@@H]1[C@H](N(C)C(=O)c2ccccc2)C[C@H]2O[C@]1(C)n1c3ccccc3c3c4c(c5c6ccccc6n2c5c31)C(=O)NC4 [Midostaurin] + CS(=O)(=O)N1CCN(Cc2cc3nc(-c4cccc5[nH]ncc45)nc(N4CCOCC4)c3s2)CC1 [Pictilisib] (partner 1 µM)
How it was run: (§2)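 Lung cancer cell lines in 1536-well plates were dosed by pin tool the day after seeding, either with one drug alone or with a fixed anchor-drug dose plus five library-drug doses (not always all listed) in √10 steps. After 5 days, cells were fixed and their nuclei stained in one step (final 0.05% Triton X-100, 1% formaldehyde, 1 ug/ml Hoechst), then counted on 4× images. Relative viability is the nuclei count in treated wells divided by that in vehicle wells. Values are medians of duplicate plates.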

[2] = compound: COc1cc(-c2nn([C@H]3CC[C@H](N4CCN(C(C)=O)CC4)CC3)c3ncnc(N)c23)ccc1NC(=O)c1cc2ccccc2n1C + C[C@]1(O)C[C@@H](c2nc(-c3ccc4ccc(-c5ccccc5)nc4c3)c3c(N)nccn32)C1 [Linsitinib] (partner 1 µM)
How it was run: as §2

Midostaurin + Alpelisib = compound: CO[C@@H]1[C@H](N(C)C(=O)c2ccccc2)C[C@H]2O[C@]1(C)n1c3ccccc3c3c4c(c5c6ccccc6n2c5c31)C(=O)NC4 [Midostaurin] + Cc1nc(NC(=O)N2CCC[C@H]2C(N)=O)sc1-c1ccnc(C(C)(C)C(F)(F)F)c1 [Alpelisib] (partner 2 µM)
How it was run: as §2

## UMC-11
Midostaurin; 0.01 µM
  relative viability: 0.984
Midostaurin; 0.03162 µM
  relative viability: 0.901
Midostaurin; 0.1 µM
  relative viability: 1
Midostaurin; 0.3162 µM
  relative viability: 0.617
[1]; 0.0128 µM
  relative viability: 1.04
[1]; 0.04048 µM
  relative viability: 0.955
[1]; 0.128 µM
  relative viability: 0.927
[1]; 1.28 µM
  relative viability: 0.84
Midostaurin + Pictilisib; first compound 0.01 µM
  relative viability: 0.859
Midostaurin + Pictilisib; first compound 0.03162 µM
  relative viability: 0.602
Midostaurin + Pictilisib; first compound 0.1 µM
  relative viability: 0.871
Midostaurin + Pictilisib; first compound 0.3162 µM
  relative viability: 0.663
[2]; first compound 0.0128 µM
  relative viability: 0.961
[2]; first compound 0.04048 µM
  relative viability: 1.01
[2]; first compound 0.128 µM
  relative viability: 0.984
[2]; first compound 1.28 µM
  relative viability: 0.781
Midostaurin + Alpelisib; first compound 0.01 µM
  relative viability: 1.04
Midostaurin + Alpelisib; first compound 0.03162 µM
  relative viability: 0.915
Midostaurin + Alpelisib; first compound 0.1 µM
  relative viability: 0.792
Midostaurin + Alpelisib; first compound 0.3162 µM
  relative viability: 0.375
